We go through 21 molecules from patent US11786519B2, “Apoptosis-inducing agents for the treatment of cancer and immune and autoimmune diseases” (AbbVie Inc., priority 2011, dated 2023).

Molecules are shown by their SMILES.

In this experiment the target is Bcl-xL (Homo sapiens, UniProt Q07817). Put plainly: TR-FRET binding assay, competition with F-Bak for Bcl-xL. The settings on record: competition with F-Bak probe, GST-Bcl-xL. The procedure: Determination of the utility of compounds having Formula (I) as binders to and inhibitors of anti-apoptotic Bcl-xL proteins was performed using the Time Resolved-Fluorescence Resonance Energy Transfer (TR-FRET) Assay. Tb-anti-GST antibody was purchased from Invitrogen (Catalog No. PV4216).
Sequence of Bcl-xL (Q07817 whole entry): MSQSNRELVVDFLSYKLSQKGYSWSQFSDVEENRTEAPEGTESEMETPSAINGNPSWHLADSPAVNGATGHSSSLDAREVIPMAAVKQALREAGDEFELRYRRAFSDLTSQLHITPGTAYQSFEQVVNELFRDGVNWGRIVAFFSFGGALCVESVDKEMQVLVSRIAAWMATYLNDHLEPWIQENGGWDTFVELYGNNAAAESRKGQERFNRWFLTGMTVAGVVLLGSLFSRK
The measurement of competition of compounds of the invention with F-Bak for a Bcl-2 family protein (Bcl-xL) binding site using a Time Resolved Fluorescence Resonance Energy Transfer (TR-FRET) binding assay:
Test compounds were serially diluted in DMSO starting at 50 µM (2× starting concentration; 10% DMSO) and 10 μL transferred into a 384-well plate.
The samples are then mixed on a shaker for 1 minute then incubated for an additional 2 hours at room temperature. For each assay plate, a probe/antibody and protein/antibody/probe mixture were included as a negative and a positive control, respectively. Fluorescence was measured on the ENVISION plate reader (Perkin Elmer) using a 340/35 nm excitation filter and 520/525 (F-Bak) and 495/510 nm ([…]) emission filters. Dissociation constants (Ki) were determined using Wang's equation (Wang, Z. X. An exact mathematical expression for describing competitive binding of two different ligands to a protein molecule. FEBS Lett. 1995 360:111-114). The TR-FRET assay can be performed in the presence of varying concentrations of human serum (HS) or fetal bovine serum (FBS).
On the technique in general: In TR-FRET formats the signal depends on donor and acceptor labels being close together.
Broadly, the Ki is a dissociation constant, usually derived from enzyme kinetics or from competition with a known ligand. Higher therefore signals a looser hold on the target. In the case of `Cc1c(-c2ccc(N3CCc4cccc(C(=O)Nc5nc6ccccc6s5)c4C3)nc2C(=O)O)cccc1N(C)CC12CC3CC(CC(C3)C1)C2` [Example 55, 6-[8-(1,3-benzothiazol-2-ylcarbamoyl)-3,4-dihydroisoquinolin-2(1H)-yl]-3-(2-methyl-3-{methyl[tricyclo[3.3.1.1^3,7]dec-1-ylmethyl]amino}phenyl)pyridine-2-carboxylic acid], the inhibition constant (Ki) stood at 0.4 nM.

For the molecule `O=C(Nc1nc2ccccc2s1)c1cccc2c1CN(c1ccc(-c3cnn(CC45CC6CC(CC(C6)C4)C5)c3)c(C(=O)O)n1)CC2` [Example 1, 6-[8-(1,3-benzothiazol-2-ylcarbamoyl)-3,4-dihydroisoquinolin-2(1H)-yl]-3-{1-[tricyclo[3.3.1.1^3,7]dec-1-ylmethyl]-1H-pyrazol-4-yl}pyridine-2-carboxylic acid], the Ki was < 0.1 nM. In the case of `Cc1c(-c2ccc(N3CCc4cccc(C(=O)Nc5nc6ccccc6s5)c4C3)nc2C(=O)O)ccnc1N(C)C1CCCCCCC1` [Example 61, 6-[8-(1,3-benzothiazol-2-ylcarbamoyl)-3,4-dihydroisoquinolin-2(1H)-yl]-2′-[cyclooctyl(methyl)amino]-3′-methyl-3,4′-bipyridine-2-carboxylic acid], the inhibitory constant (Ki) was < 0.1 nM. Take `Cc1c(-c2ccc(N3CCc4cccc(C(=O)Nc5nc6ccccc6s5)c4C3)nc2C(=O)O)cccc1N(C)C(=O)C12CC3CC(CC(C3)O1)C2` [Example 68, 6-[8-(1,3-benzothiazol-2-ylcarbamoyl)-3,4-dihydroisoquinolin-2(1H)-yl]-3-{2-methyl-3-[methyl(2-oxatricyclo[3.3.1.1^3,7]dec-1-ylcarbonyl)amino]phenyl}pyridine-2-carboxylic acid]: the inhibition constant (Ki) is < 0.1 nM. For `O=C(Nc1nc2ccccc2s1)c1cccc2c1CN(c1ccc(-c3cnn(CC45CC6CC(CC(C6)C4)C5)c3Cl)c(C(=O)O)n1)CC2` [Example 42, 6-[8-(1,3-benzothiazol-2-ylcarbamoyl)-3,4-dihydroisoquinolin-2(1H)-yl]-3-{5-chloro-1-[tricyclo[3.3.1.1^3,7]dec-1-ylmethyl]-1H-pyrazol-4-yl}pyridine-2-carboxylic acid] the value was 0.3 nM. The result for `N#Cc1c(-c2ccc(N3CCc4cccc(C(=O)Nc5nc6ccccc6s5)c4C3)nc2C(=O)O)cccc1S(=O)(=O)C12CC3CC(CC(C3)C1)C2` [Example 60, 6-[8-(1,3-benzothiazol-2-ylcarbamoyl)-3,4-dihydroisoquinolin-2(1H)-yl]-3-[2-cyano-3-(tricyclo[3.3.1.1^3,7]dec-1-ylsulfonyl)phenyl]pyridine-2-carboxylic acid] reads < 0.1 nM. Consider `Cc1c(-c2ccc(N3CCc4cccc(C(=O)Nc5nc6ccccc6s5)c4C3)nc2C(=O)O)ccnc1OCC12CC3CC(CC(C3)C1)C2` [Example 27, 6-[8-(1,3-benzothiazol-2-ylcarbamoyl)-3,4-dihydroisoquinolin-2(1H)-yl]-3′-methyl-2′-(tricyclo[3.3.1.1^3,7]dec-1-ylmethoxy)-3,4′-bipyridine-2-carboxylic acid], for which the inhibition constant Ki came out at 0.1 nM. The result for `COC12CC3CC(CC(Cn4ncc(-c5ccc(N6CCc7cccc(C(=O)Nc8nc9ccccc9s8)c7C6)nc5C(=O)NS(=O)(=O)N5CCOCC5)c4C)(C3)C1)C2` [Example 39, N-(1,3-benzothiazol-2-yl)-2-{5-(1-{[3-methoxytricyclo[3.3.1.1^3,7]dec-1-yl]methyl}-5-methyl-1H-pyrazol-4-yl)-6-[(morpholin-4-ylsulfonyl)carbamoyl]pyridin-2-yl}-1,2,3,4-tetrahydroisoquinoline-8-carboxamide] reads 12 nM. For `CNCCOCCOCCOC12CC3CC(CC(Cn4ncc(-c5ccc(N6CCc7cccc(C(=O)Nc8nc9ccccc9s8)c7C6)nc5C(=O)O)c4C)(C3)C1)C2` [Example 83, 6-[8-(1,3-benzothiazol-2-ylcarbamoyl)-3,4-dihydroisoquinolin-2(1H)-yl]-3-(5-methyl-1-{[3-(2-{2-[2-(methylamino)ethoxy]ethoxy}ethoxy)tricyclo[3.3.1.1^3,7]dec-1-yl]methyl}-1H-pyrazol-4-yl)pyridine-2-carboxylic acid], the inhibitory constant (Ki) is < 0.1 nM. For `Cc1c(-c2ccc(N3CCc4cccc(C(=O)Nc5nc6ccccc6s5)c4C3)nc2C(=O)O)cccc1S(=O)(=O)N(C)C1C2CC3CC(C2)CC1C3` (stereo not drawn) [Example 69, 6-[8-(1,3-benzothiazol-2-ylcarbamoyl)-3,4-dihydroisoquinolin-2(1H)-yl]-3-(2-methyl-3-{methyl[tricyclo[3.3.1.1^3,7]dec-2-yl]sulfamoyl}phenyl)pyridine-2-carboxylic acid] the value was 0.6 nM; for `Cc1c(-c2ccc(N3CCc4cccc(C(=O)Nc5nc6ccccc6s5)c4C3)nc2C(=O)O)cccc1S(=O)(=O)NC12CC3CC(CC(C3)C1)C2` [Example 51, 6-[8-(1,3-benzothiazol-2-ylcarbamoyl)-3,4-dihydroisoquinolin-2(1H)-yl]-3-{2-methyl-3-[tricyclo[3.3.1.1^3,7]dec-1-ylsulfamoyl]phenyl}pyridine-2-carboxylic acid], 0.3 nM. With `Cc1c(-c2ccc(N3CCc4cccc(C(=O)Nc5nc6ccccc6s5)c4C3)nc2C(=O)O)cnn1CC1C2CC3CC(C2)CC1C3` (stereo not drawn) [Example 62, 6-[8-(1,3-benzothiazol-2-ylcarbamoyl)-3,4-dihydroisoquinolin-2(1H)-yl]-3-[5-methyl-1-(tricyclo[3.3.1.1^3,7]dec-2-ylmethyl)-1H-pyrazol-4-yl]pyridine-2-carboxylic acid], the inhibitory constant (Ki) was < 0.1 nM.

Turning to `Cc1c(-c2ccc(N3CCc4cccc(C(=O)Nc5nc6ccccc6s5)c4C3)nc2C(=O)O)cc(C#N)n1CC12CC3CC(CC(C)(C3)O1)C2` [Example 72, 6-[8-(1,3-benzothiazol-2-ylcarbamoyl)-3,4-dihydroisoquinolin-2(1H)-yl]-3-{5-cyano-2-methyl-1-[(3-methyl-2-oxatricyclo[3.3.1.1^3,7]dec-1-yl)methyl]-1H-pyrrol-3-yl}pyridine-2-carboxylic acid], the inhibitory constant (Ki) was < 0.1 nM. The result for `O=C(Nc1nc2ccccc2s1)c1cccc2c1CN(c1ccc(-c3cnn(CC45CC6CC(CC(Br)(C6)C4)C5)c3)c(C(=O)O)n1)CC2` [Example 11, 6-[8-(1,3-benzothiazol-2-ylcarbamoyl)-3,4-dihydroisoquinolin-2(1H)-yl]-3-(1-{[3-bromotricyclo[3.3.1.1^3,7]dec-1-yl]methyl}-1H-pyrazol-4-yl)pyridine-2-carboxylic acid] reads < 0.1 nM; that for `O=C(Nc1nc2ccccc2s1)c1cccc2c1CN(c1ccc(-c3ccc(=O)n(CC45CC6CC(CC(C6)C4)C5)c3)c(C(=O)O)n1)CC2` [Example 85, 6-[8-(1,3-benzothiazol-2-ylcarbamoyl)-3,4-dihydroisoquinolin-2(1H)-yl]-6′-oxo-1′-(tricyclo[3.3.1.1^3,7]dec-1-ylmethyl)-1′,6′-dihydro-3,3′-bipyridine-2-carboxylic acid], < 0.1 nM. As to `Cc1c(-c2ccc(N3CCc4cccc(C(=O)Nc5nc6ncccc6s5)c4C3)nc2C(=O)O)cnn1CC12CC3CC(CC(C3)C1)C2` [Example 30, 3-[5-methyl-1-(tricyclo[3.3.1.1^3,7]dec-1-ylmethyl)-1H-pyrazol-4-yl]-6-[8-([1,3]thiazolo[4,5-b]pyridin-2-ylcarbamoyl)-3,4-dihydroisoquinolin-2(1H)-yl]pyridine-2-carboxylic acid], the inhibition constant (Ki) was < 0.1 nM. For the molecule `N#Cc1c(NC23CC4CC(CC(C4)C2)C3)cccc1-c1ccc(N2CCc3cccc(C(=O)Nc4nc5ccccc5s4)c3C2)nc1C(=O)O` [Example 47, 6-[8-(1,3-benzothiazol-2-ylcarbamoyl)-3,4-dihydroisoquinolin-2(1H)-yl]-3-{2-cyano-3-[tricyclo[3.3.1.1^3,7]dec-1-ylamino]phenyl}pyridine-2-carboxylic acid], the inhibition constant Ki stood at 0.2 nM. The result for `O=C(Nc1nc2ccccc2s1)c1cccc2c1CN(c1ccc(-c3cnn(CC4CCC5(CCC5)CC4)c3)c(C(=O)O)n1)CC2` [Example 4, 6-[8-(1,3-benzothiazol-2-ylcarbamoyl)-3,4-dihydroisoquinolin-2(1H)-yl]-3-[1-(spiro[3.5]non-7-ylmethyl)-1H-pyrazol-4-yl]pyridine-2-carboxylic acid] reads 0.5 nM; that for `COC12CC3CC(CC(Cn4ncc(-c5ccc(N6CCc7cccc(C(=O)Nc8nc9ccccc9s8)c7C6)nc5C(=O)NS(=O)(=O)C5CC5)c4C)(C3)C1)C2` [Example 41, N-(1,3-benzothiazol-2-yl)-2-{6-[(cyclopropylsulfonyl)carbamoyl]-5-(1-{[3-methoxytricyclo[3.3.1.1^3,7]dec-1-yl]methyl}-5-methyl-1H-pyrazol-4-yl)pyridin-2-yl}-1,2,3,4-tetrahydroisoquinoline-8-carboxamide], < 0.1 nM. The result for `Cc1c(C(=O)N(C)C2C3CC4CC(C3)CC2C4)cccc1-c1ccc(N2CCc3cccc(C(=O)Nc4nc5ccccc5s4)c3C2)nc1C(=O)O` (stereo not drawn) [Example 64] reads < 0.1 nM; that for `Cc1c(NC(=O)C23CC4CC(CC(C4)C2)C3)cccc1-c1ccc(N2CCc3cccc(C(=O)Nc4nc5ccccc5s4)c3C2)nc1C(=O)O` [Example 50, 6-[8-(1,3-benzothiazol-2-ylcarbamoyl)-3,4-dihydroisoquinolin-2(1H)-yl]-3-(2-methyl-3-{[tricyclo[3.3.1.1^3,7]dec-1-ylcarbonyl]amino}phenyl)pyridine-2-carboxylic acid], 9 nM.
